Blank lines part the entries; values can stand above or below the molecule they belong to.
Legend:
Assay in all cases: radiometric filter-binding kinase assay
[1] = test system: AKT2 (human), P31751 [S474D]
[2] = biological target: AURKA (human) (UniProt O14965)
[3] = biological target: CLK2 (human) (UniProt P49760)
[4] = biological target: CSNK1D (human) (UniProt P48730)
[5] = biological target: CSNK2A1 (human) (UniProt P68400)
[6] = biological target: DYRK2 (human) (UniProt Q92630)
[7] = biological target: FLT1 (human) (UniProt P17948)
[8] = biological target: HIPK1 (human) (UniProt Q86Z02)
[9] = biological target: HIPK2 (human) (UniProt Q9H2X6)
[10] = biological target: INSR (human) (UniProt P06213)
[11] = biological target: INSRR (human) (UniProt P14616)
[12] = biological target: IRAK4 (human) (UniProt Q9NWZ3)
[13] = biological target: JAK2 JH1 JH2 (human) (UniProt O60674)
[14] = biological target: MAP3K9 (human) (UniProt P80192)
[15] = biological target: MAPK1 (human) (UniProt P28482)
MAPK1 (human), sequence (P28482 whole entry, looked up): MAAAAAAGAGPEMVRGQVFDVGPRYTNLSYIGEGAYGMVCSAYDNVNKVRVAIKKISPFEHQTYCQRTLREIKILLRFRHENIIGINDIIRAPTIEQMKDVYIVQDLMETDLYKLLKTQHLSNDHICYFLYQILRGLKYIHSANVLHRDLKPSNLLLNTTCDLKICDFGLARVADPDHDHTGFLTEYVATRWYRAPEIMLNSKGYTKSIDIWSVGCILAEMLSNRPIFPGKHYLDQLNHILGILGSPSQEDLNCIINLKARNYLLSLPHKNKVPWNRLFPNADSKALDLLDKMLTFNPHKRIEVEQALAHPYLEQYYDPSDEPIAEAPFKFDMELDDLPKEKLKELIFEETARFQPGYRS

[16] = biological target: MAPK14 (human) (UniProt Q16539)
[17] = biological target: MAPK15 (human) (UniProt Q8TD08)
MAPK15 (human), sequence (Q8TD08 whole entry, looked up): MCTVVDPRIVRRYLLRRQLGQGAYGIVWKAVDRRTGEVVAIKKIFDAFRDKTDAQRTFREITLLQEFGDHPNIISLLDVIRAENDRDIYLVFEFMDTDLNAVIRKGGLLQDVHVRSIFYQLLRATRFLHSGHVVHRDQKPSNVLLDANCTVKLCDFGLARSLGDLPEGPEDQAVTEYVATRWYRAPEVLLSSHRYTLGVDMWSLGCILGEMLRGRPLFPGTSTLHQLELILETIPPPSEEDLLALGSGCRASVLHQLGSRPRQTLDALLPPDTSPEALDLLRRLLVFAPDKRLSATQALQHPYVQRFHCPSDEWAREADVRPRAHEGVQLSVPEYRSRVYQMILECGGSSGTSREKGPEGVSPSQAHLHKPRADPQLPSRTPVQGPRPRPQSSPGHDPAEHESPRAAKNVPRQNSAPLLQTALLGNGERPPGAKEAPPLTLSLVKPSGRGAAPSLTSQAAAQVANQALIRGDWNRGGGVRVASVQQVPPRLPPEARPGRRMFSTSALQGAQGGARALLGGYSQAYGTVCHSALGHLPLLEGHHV

[18] = biological target: MAPKAPK3 (human) (UniProt Q16644)
[19] = biological target: MARK3 (human) (UniProt P27448)
[20] = biological target: MARK4 (human) (UniProt Q96L34)
[21] = biological target: MKNK2 (human) (UniProt Q9HBH9)
MKNK2 (human), sequence (Q9HBH9 whole entry, looked up): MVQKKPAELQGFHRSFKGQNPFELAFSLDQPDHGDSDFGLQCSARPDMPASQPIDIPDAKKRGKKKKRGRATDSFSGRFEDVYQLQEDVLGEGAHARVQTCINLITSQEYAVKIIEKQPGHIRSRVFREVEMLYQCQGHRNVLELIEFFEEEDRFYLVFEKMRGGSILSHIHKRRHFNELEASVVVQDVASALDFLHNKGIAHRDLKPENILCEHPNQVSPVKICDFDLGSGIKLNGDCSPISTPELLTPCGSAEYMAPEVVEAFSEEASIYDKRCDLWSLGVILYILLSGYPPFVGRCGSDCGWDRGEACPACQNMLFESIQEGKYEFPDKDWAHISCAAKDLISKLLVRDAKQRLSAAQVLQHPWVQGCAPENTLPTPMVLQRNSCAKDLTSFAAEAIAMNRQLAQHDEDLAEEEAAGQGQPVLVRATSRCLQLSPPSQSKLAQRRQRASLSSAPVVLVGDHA

[22] = biological target: NEK2 (human) (UniProt P51955)
[23] = biological target: NEK6 (human) (UniProt Q9HC98)
[24] = biological target: NTRK1 (human) (UniProt P04629)
[25] = biological target: PRKCA (human) (UniProt P17252)
[26] = biological target: RIPK2 (human) (UniProt O43353)
[27] = biological target: RPS6KA1 KD1 KD2 (human) (UniProt Q15418)
[28] = biological target: RPS6KA5 KD1 KD2 (human) (UniProt O75582)
RPS6KA5 KD1 KD2 (human), sequence (O75582 whole entry, looked up): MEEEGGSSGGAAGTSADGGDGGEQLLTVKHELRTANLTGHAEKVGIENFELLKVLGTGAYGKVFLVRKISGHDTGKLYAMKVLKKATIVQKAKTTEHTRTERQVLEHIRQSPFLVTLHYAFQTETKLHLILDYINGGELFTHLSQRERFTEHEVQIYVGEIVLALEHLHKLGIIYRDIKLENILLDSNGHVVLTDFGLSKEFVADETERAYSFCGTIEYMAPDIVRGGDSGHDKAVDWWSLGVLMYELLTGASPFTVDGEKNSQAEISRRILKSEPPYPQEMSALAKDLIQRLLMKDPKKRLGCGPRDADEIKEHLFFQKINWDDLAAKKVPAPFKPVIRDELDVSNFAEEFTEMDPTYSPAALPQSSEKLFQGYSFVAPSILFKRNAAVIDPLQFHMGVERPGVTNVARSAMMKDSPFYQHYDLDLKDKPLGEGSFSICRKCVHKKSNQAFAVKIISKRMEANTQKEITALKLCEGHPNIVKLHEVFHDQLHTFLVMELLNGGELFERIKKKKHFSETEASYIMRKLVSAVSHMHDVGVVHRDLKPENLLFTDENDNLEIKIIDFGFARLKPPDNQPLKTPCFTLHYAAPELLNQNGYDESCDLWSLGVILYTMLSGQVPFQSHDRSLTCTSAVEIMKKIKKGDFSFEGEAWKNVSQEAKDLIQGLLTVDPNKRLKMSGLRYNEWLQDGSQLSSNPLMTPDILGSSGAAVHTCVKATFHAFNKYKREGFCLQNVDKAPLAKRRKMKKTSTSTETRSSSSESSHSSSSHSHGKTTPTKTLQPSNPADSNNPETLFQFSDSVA

[29] = test system: RPS6KB1 (human), P23443 [T412E]
RPS6KB1 (human), P23443 [T412E], sequence (P23443 whole entry T412E, looked up): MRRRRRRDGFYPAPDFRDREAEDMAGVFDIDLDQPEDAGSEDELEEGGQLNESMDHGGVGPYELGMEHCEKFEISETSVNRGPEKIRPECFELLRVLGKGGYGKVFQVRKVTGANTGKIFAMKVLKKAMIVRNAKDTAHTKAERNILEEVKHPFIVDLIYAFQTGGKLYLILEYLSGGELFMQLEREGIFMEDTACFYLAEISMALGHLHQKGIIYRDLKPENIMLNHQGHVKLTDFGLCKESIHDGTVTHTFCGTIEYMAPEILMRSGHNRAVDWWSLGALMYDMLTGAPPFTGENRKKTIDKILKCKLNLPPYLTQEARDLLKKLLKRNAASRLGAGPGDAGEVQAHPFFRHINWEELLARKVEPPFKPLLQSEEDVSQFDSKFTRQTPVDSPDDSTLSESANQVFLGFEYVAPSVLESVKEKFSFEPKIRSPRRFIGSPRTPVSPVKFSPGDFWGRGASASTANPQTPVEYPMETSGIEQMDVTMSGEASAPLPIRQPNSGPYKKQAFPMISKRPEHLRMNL

[30] = biological target: SRPK1 (human) (UniProt Q96SB4)
[31] = biological target: STK11 CAB39 STRADA (human) (UniProt Q9Y376+Q7RTN6+Q15831)
[32] = biological target: YES1 (human) (UniProt P07947)
[33] = biological target: BTK (human) (UniProt Q06187); conditions: compound 10.0 µM
[34] = biological target: MAPK11 (human) (UniProt Q15759); conditions: compound 10.0 µM

AKT2 (human), P31751 [S474D], sequence (P31751 whole entry S474D, looked up): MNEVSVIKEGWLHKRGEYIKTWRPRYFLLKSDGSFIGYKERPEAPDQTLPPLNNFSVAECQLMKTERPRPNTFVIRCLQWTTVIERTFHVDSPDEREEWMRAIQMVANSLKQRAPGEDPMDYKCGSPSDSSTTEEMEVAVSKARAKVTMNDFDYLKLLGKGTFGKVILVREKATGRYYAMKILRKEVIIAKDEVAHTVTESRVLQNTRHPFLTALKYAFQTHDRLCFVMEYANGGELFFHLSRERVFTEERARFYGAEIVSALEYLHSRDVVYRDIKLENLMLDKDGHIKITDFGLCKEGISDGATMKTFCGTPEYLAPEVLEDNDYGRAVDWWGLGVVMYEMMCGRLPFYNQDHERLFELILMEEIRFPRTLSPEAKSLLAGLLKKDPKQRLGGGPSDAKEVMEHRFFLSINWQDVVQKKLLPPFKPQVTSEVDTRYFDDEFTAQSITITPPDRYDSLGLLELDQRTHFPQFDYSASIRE
AURKA (human), sequence (O14965 whole entry, looked up): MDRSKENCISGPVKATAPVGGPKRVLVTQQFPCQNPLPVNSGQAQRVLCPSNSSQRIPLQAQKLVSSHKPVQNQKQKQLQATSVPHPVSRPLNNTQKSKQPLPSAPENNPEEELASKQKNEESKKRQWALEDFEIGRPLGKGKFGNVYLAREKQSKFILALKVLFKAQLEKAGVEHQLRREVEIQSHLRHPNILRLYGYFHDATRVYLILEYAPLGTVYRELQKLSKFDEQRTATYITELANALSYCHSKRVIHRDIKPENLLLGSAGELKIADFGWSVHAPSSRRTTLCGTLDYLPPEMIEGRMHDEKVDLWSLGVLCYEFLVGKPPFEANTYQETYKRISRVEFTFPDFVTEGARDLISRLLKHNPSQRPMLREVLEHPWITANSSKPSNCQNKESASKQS
CLK2 (human), sequence (P49760 whole entry, looked up): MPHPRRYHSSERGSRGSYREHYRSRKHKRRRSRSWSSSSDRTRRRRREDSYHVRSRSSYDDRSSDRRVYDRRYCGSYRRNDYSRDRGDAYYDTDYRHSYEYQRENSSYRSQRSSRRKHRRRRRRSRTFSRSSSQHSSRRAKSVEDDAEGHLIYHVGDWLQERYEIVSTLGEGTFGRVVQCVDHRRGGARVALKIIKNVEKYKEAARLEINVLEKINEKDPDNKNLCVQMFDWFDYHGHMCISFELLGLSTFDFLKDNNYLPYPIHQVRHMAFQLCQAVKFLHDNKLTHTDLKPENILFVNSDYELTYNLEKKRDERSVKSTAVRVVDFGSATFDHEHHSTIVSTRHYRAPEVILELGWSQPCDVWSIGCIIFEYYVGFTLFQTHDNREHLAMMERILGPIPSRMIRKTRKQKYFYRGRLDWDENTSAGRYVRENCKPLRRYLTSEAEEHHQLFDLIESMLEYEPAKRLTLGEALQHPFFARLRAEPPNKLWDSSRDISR

residual activity ([1]; compound 0.1 µM): 99%
residual activity ([1]; compound 1.0 µM): 91%
residual activity ([2]; compound 0.1 µM): 97%
residual activity ([2]; compound 1.0 µM): 91%
residual activity ([3]; compound 0.1 µM): 102%
residual activity ([3]; compound 1.0 µM): 88%
residual activity ([4]; compound 0.1 µM): 89%
residual activity ([4]; compound 1.0 µM): 57%
residual activity ([5]; compound 0.1 µM): 93%
residual activity ([5]; compound 1.0 µM): 77%
residual activity ([6]; compound 0.1 µM): 73%
residual activity ([6]; compound 1.0 µM): 72%
residual activity ([7]; compound 0.1 µM): 100%
residual activity ([7]; compound 1.0 µM): 53%
residual activity ([8]; compound 0.1 µM): 103%
residual activity ([8]; compound 1.0 µM): 87%
residual activity ([9]; compound 0.1 µM): 92%
residual activity ([9]; compound 1.0 µM): 99%
residual activity ([10]; compound 0.1 µM): 102%
residual activity ([10]; compound 1.0 µM): 80%
residual activity ([11]; compound 0.1 µM): 93%
residual activity ([12]; compound 1.0 µM): 86%
residual activity ([13]; compound 0.1 µM): 100%
residual activity ([13]; compound 1.0 µM): 94%
residual activity ([14]; compound 0.1 µM): 98%
residual activity ([14]; compound 1.0 µM): 88%
residual activity ([15]; compound 0.1 µM): 110%
residual activity ([15]; compound 1.0 µM): 100%
residual activity ([16]; compound 0.1 µM): 105%
residual activity ([16]; compound 1.0 µM): 110%
residual activity ([18]; compound 1.0 µM): 90%
residual activity ([19]; compound 0.1 µM): 92%
residual activity ([19]; compound 1.0 µM): 93%
residual activity ([20]; compound 0.1 µM): 101%
residual activity ([20]; compound 1.0 µM): 84%
residual activity ([21]; compound 0.1 µM): 84%
residual activity ([21]; compound 1.0 µM): 67%
residual activity ([22]; compound 0.1 µM): 105%
residual activity ([22]; compound 1.0 µM): 100%
residual activity ([23]; compound 0.1 µM): 95%
residual activity ([23]; compound 1.0 µM): 87%
residual activity ([24]; compound 1.0 µM): 92%
residual activity ([25]; compound 0.1 µM): 93%
residual activity ([25]; compound 1.0 µM): 90%
residual activity ([26]; compound 0.1 µM): 82%
residual activity ([26]; compound 1.0 µM): 49%
residual activity ([27]; compound 0.1 µM): 89%
residual activity ([27]; compound 1.0 µM): 81%
residual activity ([28]; compound 0.1 µM): 91%
residual activity ([28]; compound 1.0 µM): 80%
residual activity ([29]; compound 0.1 µM): 98%
residual activity ([29]; compound 1.0 µM): 93%
residual activity ([30]; compound 0.1 µM): 97%
residual activity ([30]; compound 1.0 µM): 84%
residual activity ([31]; compound 0.1 µM): 106%
residual activity ([31]; compound 1.0 µM): 95%
residual activity ([32]; compound 0.1 µM): 87%
residual activity ([32]; compound 1.0 µM): 39%
SMILES: Cc1cc(NC(=O)c2cccc(NC(=O)/C=C/CN(C)C)c2)ccc1Nc1nccc(-c2cccnc2)n1
residual activity ([17]; compound 0.1 µM): 90%
residual activity ([17]; compound 1.0 µM): 64%

residual activity ([1]; compound 10.0 µM): 49%
residual activity ([2]; compound 10.0 µM): 76%
residual activity [33]: 70%
residual activity ([3]; compound 10.0 µM): 126%
residual activity ([4]; compound 10.0 µM): 112%
residual activity ([5]; compound 10.0 µM): 106%
residual activity ([6]; compound 10.0 µM): 54%
residual activity ([7]; compound 10.0 µM): 47%
residual activity ([8]; compound 10.0 µM): 98%
residual activity ([10]; compound 10.0 µM): 99%
residual activity ([11]; compound 10.0 µM): 106%
residual activity ([12]; compound 10.0 µM): 112%
residual activity ([13]; compound 10.0 µM): 17%
residual activity ([14]; compound 10.0 µM): 78%
residual activity ([15]; compound 10.0 µM): 82%
residual activity [34]: 113%
residual activity ([16]; compound 10.0 µM): 105%
residual activity ([18]; compound 10.0 µM): 41%
residual activity ([19]; compound 10.0 µM): 84%
residual activity ([20]; compound 10.0 µM): 52%
residual activity ([21]; compound 10.0 µM): 89%
residual activity ([22]; compound 10.0 µM): 125%
residual activity ([23]; compound 10.0 µM): 106%
residual activity ([24]; compound 10.0 µM): 104%
residual activity ([25]; compound 10.0 µM): 96%
residual activity ([26]; compound 10.0 µM): 134%
residual activity ([27]; compound 10.0 µM): 92%
residual activity ([28]; compound 10.0 µM): 62%
residual activity ([29]; compound 10.0 µM): 120%
residual activity ([30]; compound 10.0 µM): 76%
residual activity ([31]; compound 10.0 µM): 134%
residual activity ([32]; compound 10.0 µM): 110%
SMILES: CCOC(=O)c1ccc(N2NC(=O)/C(=C/c3ccc([N+](=O)[O-])o3)C2=O)cc1
residual activity ([17]; compound 10.0 µM): 86%

Reference: the kinase profiling compilation of Christmann-Franck et al. (2016)
